Test results published in patent publication US8703098B2, “Labelled adrenomedullin derivatives and their use for imaging and therapy” (Institut de Cardiologie de Montreal, priority 2004, dated 2014).
Ends that are not written are not given here.

Tests used:
[1] = dog, in vivo, iv
Procedure: All experimental procedures were performed in accordance with regulations and ethical guidelines from Canadian Council for the Care of Laboratory Animals, and received approval by the animal ethics and research committee of the Montreal Heart Institute. Mongrel dogs weighing between 20-30 kg and presenting negative Dirofilaria imitis blood test results were anesthetized by an initial intravenous dose of pentobarbital sodium (50 mg/kg). Animals were intubated and mechanically ventilated using room air. Cutaneous electrocardiographic leads were installed, and 18F cathlon with three-way was installed on both saphenous vein for 0.9% sodium chloride perfusion, radiolabelled injection and blood collection. A right arterial femoral catheter was also inserted using the Seldinger technique for continuous blood pressure monitoring.
Purified and buffered ^99mTc-DTPA-hAM1-52 samples were injected in right saphenous vein (n=6). A series of 2 mL blood samples were collected 1 min after the initial AM injection for a 10-min period, then repeated every 5 min for the following 50-min period. […]
Plasma kinetics of ^99mTc-DTPA-hAM1-52 was fitted using a two-phase exponential decay equation with GraphPad Prism version 4.0 software. Time effects on each organ biodistribution were analyzed by two-way repeated measures ANOVA followed, when a significant interaction was found, by Bonferroni/Dunn t-test. […]

[2] = Plasma kinetics of 125I-rAM(1-50) after single intravenous injection in rats; format: in vivo, rat; details: drug given 5 min before the 125I-rAM(1-50) bolus
Procedure: (§1) All experimental procedures were performed in accordance with the regulations and ethical guidelines from Canadian Council for the Care of Laboratory Animals, and received approval by the Animal Ethics and Research Committee of the Montreal Heart Institute. Male Sprague-Dawley rats (Charles River), weighing between 400-450 g, were anaesthetized by an initial intramuscular dose of xylazine (10 mg/kg of body weight) and ketamine (50 mg/kg of body weight), followed by an intra-peritoneal injection of heparin (2000 units; Sigma). Catheters were inserted into the right carotid artery and jugular vein. Heart rate and systemic blood pressure were monitored continuously. […] Venous and arterial blood samples (3 ml) were collected and centrifuged (1875 g, 15 min, 4° C.) and the plasma saved for subsequent measurement of irAM (immunoreactive AM). A similar amount of saline was infused into the animals to prevent hypovolaemia.
The animals were then killed and the lungs, liver, kidneys (en bloc with the adrenal glands) and heart were removed and gravity drained. […] Results are expressed as a percentage of total radioactivity injected. […]
Multiple group comparisons were performed by factorial ANOVA, followed, when a significant interaction was found, by the Bonferroni/Dunn t test. […] In the canine experiments, the effect of drugs on AM extraction was analyzed by two-tailed paired Student's t tests. […]

[3] = Biodistribution and pulmonary retention of 125I-rAM(1-50) in rats after intravenous or intra-arterial injection; format: in vivo, rat; details: drug given 5 min before tracer
Procedure: as §1
The animals were then killed and the lungs, liver, kidneys (en bloc with the adrenal glands) and heart were removed and gravity drained. […] Results are expressed as a percentage of total radioactivity injected.
The drugs were given by either intraarterial (n=10 in each group) or intravenous (n=10 in each group) injection 5 min before the ^125I-rAM(1-50) bolus. Plasma samples and tissues were treated as described above.
(§2) Multiple group comparisons were performed by factorial ANOVA, followed, when a significant interaction was found, by the Bonferroni/Dunn t test. Plasma kinetics of 125I-rAM(1-50) was fitted using a two-phase exponential decay equation with GraphPad Prism (version 4.0) software. […] Comparison between venous and arterial rAM(1-50) levels in plasma was performed with a two-tailed paired Student's t test. In the canine experiments, the effect of drugs on AM extraction was analyzed by two-tailed paired Student's t tests. A P value of <0.05 was considered significant. All results are reported as means ±S.E.M.

[4] = In vivo single-pass pulmonary clearance of 125I-rAM(1-50) in dogs, single bolus indicator-dilution technique; design: species or system dog; details: for mean single-pass pulmonary extraction of 125I-rAM(1-50) after administration of the drug: dogs, drug as intravenous bolus of 100 nmol 5 min before second experiment, mean ±S.E.M.
Procedure: Dogs were anaesthetized and prepared as described in detail in reference, which is hereby incorporated by reference. A catheter was inserted into the carotid artery and positioned just above the aortic valve. This catheter was connected to a peristaltic pump for automated blood withdrawal. Another catheter was placed into the jugular vein and positioned in the right ventricular outflow tract to allow bolus injection of the study tracers. A bolus was prepared by adding 3.3 μCi of 125I-rAM(1-50) (2.9 pmol) to 3 ml of Evans-Blue-dye labelled albumin and 0.9% saline to give a final volume of 6 ml. The mixture was separated into three equal parts for the two successive experiments in each animal and to realize dilution-curve standards. A baseline single-bolus indicator-dilution experiment was performed.
The collected samples were processed and indicator-dilution curves constructed and analyzed as described in previously cited reference 13. Cardiac output and mean tracer AM extraction during the pulmonary transit time were computed from the curves. Mean tracer extraction corresponded to the difference between the areas of the outflow curve of the vascular reference (albumin) and that of the extracted tracer (AM). Recirculation of the tracers apparent in the terminal portion of the curves was removed by linear extrapolation of the semi-logarithmic down slopes.
as §2

Compound: CC[C@H](C)[C@H](NC(=O)[C@H](CCC(N)=O)NC(=O)[C@H](Cc1c[nH]cn1)NC(=O)[C@H](C)NC(=O)[C@H](CC(C)C)NC(=O)[C@H](CCCCN)NC(=O)[C@H](CCC(N)=O)NC(=O)[C@@H](NC(=O)[C@@H](NC(=O)[C@@H]1CSSC[C@H](NC(=O)CNC(=O)[C@H](Cc2ccccc2)NC(=O)[C@H](CO)NC(=O)[C@H](CCCNC(=N)N)NC(=O)[C@H](CC(C)C)NC(=O)CNC(=O)[C@H](CCC(N)=O)NC(=O)[C@H](Cc2ccccc2)NC(=O)[C@H](CC(N)=O)NC(=O)[C@H](CC(N)=O)NC(=O)[C@H](CCSC)NC(=O)[C@H](CO)NC(=O)[C@H](CCC(N)=O)NC(=O)[C@H](CCCNC(=N)N)NC(=O)[C@H](Cc2ccc(O)cc2)NC(=O)CN(CCN(CCN(CC(=O)O)CC(=O)O)CC(=O)O)CC(=O)O)C(=O)N[C@@H](CCCNC(=N)N)C(=O)N[C@@H](Cc2ccccc2)C(=O)NCC(=O)N[C@@H]([C@@H](C)O)C(=O)N1)[C@@H](C)O)C(C)C)C(=O)N[C@@H](Cc1ccc(O)cc1)C(=O)N[C@@H](CCC(N)=O)C(=O)N[C@@H](Cc1ccccc1)C(=O)N[C@H](C(=O)N[C@@H](CC(=O)O)C(=O)N[C@@H](CCCCN)C(=O)N[C@@H](CC(=O)O)C(=O)N[C@@H](CCCCN)C(=O)N[C@@H](CC(=O)O)C(=O)N[C@@H](CC(N)=O)C(=O)N[C@H](C(=O)N[C@@H](C)C(=O)N1CCC[C@H]1C(=O)N[C@@H](CCCNC(=N)N)C(=O)N[C@@H](CO)C(=O)N[C@@H](CCCCN)C(=O)N[C@H](C(=O)N[C@@H](CO)C(=O)N1CCC[C@H]1C(=O)N[C@@H](CCC(N)=O)C(=O)NCC(=O)N[C@@H](Cc1ccc(O)cc1)C(N)=O)[C@@H](C)CC)C(C)C)[C@@H](C)O [99mTc-DTPA-hAM1-52, metal not drawn]
- ratio of rate constant for exchange between the central and peripheral compartments (k1-2/k2-1) [1]: 24.09

Compound: hAM(22-52): C-terminal AM fragment that blocks the specific AM receptor (Bachem)
- effect of administration prior to radiolabelled rAM(1-50) on its plasma kinetics [2]: did not modify plasma kinetics
- effect of prior administration on 125I-rAM(1-50) activity retained in kidneys [3]: elevated the retained activity
- effect of prior administration on biodistribution of 125I-rAM(1-50) [3]: did not significantly modify this distribution
- effect of prior administration on pulmonary first-pass retention of 125I-rAM(1-50) (intra-arterial compared with intravenous) [3]: not affected
- mean single-pass pulmonary extraction of 125I-rAM(1-50) after administration of the drug [4]: 31.4±3.3%

Compound: rAM(1-50): unlabelled rat adrenomedullin, amino acids 1-50 (American Peptide) (YRQSMNQGSRSTGCRFGTCTMQKLAHQIYQFTDKDKDGMAPRNKISPQGY; ends and bridges not checked; cysteine pairing not given here)
- effect of administration prior to radiolabelled rAM(1-50) on its plasma kinetics [2]: did not modify plasma kinetics
- effect of prior administration on 125I-rAM(1-50) lung activity [3]: important reduction in lung activity
- effect of prior administration on amount of 125I-rAM(1-50) retained by the liver, kidneys and heart [3]: significantly increased
- effect of prior administration on pulmonary first-pass retention of 125I-rAM(1-50) (intra-arterial compared with intravenous) [3]: did not decrease further the already lowered pulmonary retention after intra-arterial compared with intravenous injections
- mean single-pass pulmonary extraction of 125I-rAM(1-50) after administration of the drug [4]: 21.9±2.4%
- mean extraction of 125I-rAM(1-50) after injection of the drug, typical experiment ([4]; same dog, second experiment (FIG. 4B)): 12%
